Assay results as given in US7241581B2, “Methods of identifying compounds that modulate IL-4 receptor-mediated IgE synthesis utilizing a c-MYC protein” (Rigel Pharmaceuticals, Inc., priority 2002, dated 2007).
“And” between values parts separate entries of the source, which are not always exact repeats. Equal entries are not always repeated.

How the values were obtained:
human c-Myc protein = target: T1, human c-Myc protein (Homo sapiens, UniProt P01106); assay: Yeast two hybrid (YTH) interaction assay, β-galactosidase; assay type: binding
T1 construct: expressed in transfected cells; prey cDNA library made from the A5T4 reporter line (human BJAB B-cells)
Experimental: Potential binding partners for peptide BR10A1 wt were identified in a β-galactosidase yeast two-hybrid (YTH) assay using peptide BR10A1 wt as bait and a cDNA library constructed from the A5T4 reporter cell line as prey. Binding was assessed by β-galactosidase quantification using BetaFluor (Novagen) as a substrate. A negative interaction control (no cDNA fused downstream of the GAL4 activation domain sequence) was also run. A general outline of the YTH assay is illustrated in FIG. 5A. Following clustering, filtering to remove non-specific bait hits (e.g., GFP and BFP), singletons and clusters recognized by 10 or more cDNA baits (based upon historical YTH assays), and prioritization, 30 prey clones were identified as hits.
Potential targets identified in the YTH assay were reconfirmed as generally outlined in FIG. 6. The cDNA clones identified as hits in the YTH assay were purified and rescreened for interaction with the BR10A1 wt peptide in a YTH assay. The hit clones were also screened in a control assay for interaction with the BFP using a vector (pGBKT7) that contained only the BFP and not the BR10A1 peptide. At this stage, 25 putative target clones remained.
The interaction of BR10A1 wt peptide and its mutants with the clones identified as potential targets for the peptide BR10A1 wt was then quantified in a β-galactosidase YTH assay. The YTH assay was performed in the manner described above. A general outline of this YTH assay is illustrated in FIG. 5B. For each clone tested, an interaction profile was developed by comparing the β-galactosidase activity of each mutant to that of the wild type peptide as described above.
The interaction of selected IOF, ROF and LOF mutants with different polypeptides encoded by the putative target clones were quantified using the YTH assay described above. Based on the YTH assay, for each putative target, the mutants were categorized into the following four interaction categories: (1) reduction of interaction (ROI); (2) loss of interaction (LOI); (3) increase of interaction (IOI); and (4) interactionally neutral (N), by assessing the binding affinity ratio of the mutant peptide and the wild type peptide (β-gal activity of mutant/wild type) to the putative target. The selection criteria for categorizing the interactions is shown on FIG. 8.

germline ε promoter = assay: Functional profile of BR10A1 wt and mutants in the A5T4 reporter cell line; assay type: cell-based, human; settings: for Reporter Ratio: A5T4 reporter line; for functional category as compared to the activity of the wild type peptide: based on reporter ratio, % change calculated after subtracting 1.0 from the ratios
Experimental: Following infection, the library was enriched for cells expressing peptides that inhibit IL-4 induced ε transcription as generally outlined in the top half of FIG. 3 and sorted by FACS into single cell clones. The clones were then screened as generally illustrated in the lower half of FIG. 3. Briefly, for screening, each clone was divided into two populations and one population was treated with Dox (10 ng/ml). After 5 days, both populations were stimulated with IL-4 (final conc. 60 U/mL; PeptroTech, Inc.) and, after 3 more days, both populations were analyzed by FACS to measure BFP and GFP fluorescence. FACS data were converted to a “reporter ratio”, which is defined for this purpose as the ratio of the geometric mean of GFP fluorescence of the +IL-4/+Dox to the +IL-4/−Dox populations. Cells expressing a peptide that inhibits germline ε transcription have a reporter ratio of ≧1.1. A reporter ratio of ≧1.2 is indicative of strong inhibition.
The ability of peptide BR10A1 wt to inhibit germline ε transcription was confirmed in naive cells. Briefly, Phoenix cells were transfected with a retroviral vector encoding a BFP-BR10A1 wt peptide fusion as described in WO 99/58663 and WO 97/27213. Naïve A5T4 cells were infected with the resultant virions and grown for 3 days. The infected cells were stimulated with IL-4 (60 U/mL) and, after 3 days, the cells were assessed by FACS for BFP and GFP. […] The BFP fluorescence data corresponding to the BFP^+ and BFP^− populations are provided in Panel A. The GFP fluorescence data corresponding to the BFP^+ and BFP^− populations are presented in Panel B. The reporter ratio for this purpose is determined as the geometric mean of the GFP fluorescence of the BFP^− population divided by the geometric mean of the GFP fluorescence of the BFP^+ population. The reporter ratio for the BR10A1 in this re-infection assay was 1.27.
A collection of BR10A1 mutants was generated by replacing single or double amino acid residues in the sequence of BR10A1 wt with a different amino acid, typically an alanine or glycine, as described in copending application Ser. No.10/095,659, entitled Methods of Identifying Protein Targets, filed Mar. 8, 2002 . The functional profiles for the mutants derived from BR10A1 wt was obtained by constructing and screening for activity in the A5T4 reporter cell line in the manner described above. The activity of each mutant at the germline ε promoter is reflected in the reporter ratio as described above. The reporter ratios were the functional values that were used to develop the functional profiles. Measurement of the reporter ratios of the mutant peptides was carried out in a number of separate experiments, each time comparing the value of cells transfected with mutant peptide to that of cells transfected with control WT peptide done at the same time. The reporter ratios of the control WT peptide can vary depending upon a number of factors including the infectivity or the state of the infected cells at the time of infection.
TABLE 2 depicts the amino acid sequences (the dual alanine mutations are underlined) of the mutants tested and the measured reporter ratios when screening in the A5T4 reporter line.
Comparison of the interaction and functional profiles was performed by categorizing the mutants of BR10A1 based on the functional and interaction assays. Based on the reporter ratio, each mutant was categorized into one of four functional categories: (1) reduction of function (ROF); (2) loss of function (LOF); (3) increase of function (IOF) or (4) functionally neutral (N) as compared to the activity of the wild type peptide, here BR10A1 wt. As mentioned previously, cells expressing a peptide that inhibits germline ε transcription have reporter ratios of ≧1.1. Cells expressing a loss of function (LOF) mutant have a reporter ratio of <1.11. […] Functionally neutral mutants have reporter ratios that fall within ±50% of that of the BR10A1 wt peptide. […]

[1] = separate experiment with its own WT control
[2] = second value column (separate experiment with its own WT control)

T1 sequence (P01106 whole entry): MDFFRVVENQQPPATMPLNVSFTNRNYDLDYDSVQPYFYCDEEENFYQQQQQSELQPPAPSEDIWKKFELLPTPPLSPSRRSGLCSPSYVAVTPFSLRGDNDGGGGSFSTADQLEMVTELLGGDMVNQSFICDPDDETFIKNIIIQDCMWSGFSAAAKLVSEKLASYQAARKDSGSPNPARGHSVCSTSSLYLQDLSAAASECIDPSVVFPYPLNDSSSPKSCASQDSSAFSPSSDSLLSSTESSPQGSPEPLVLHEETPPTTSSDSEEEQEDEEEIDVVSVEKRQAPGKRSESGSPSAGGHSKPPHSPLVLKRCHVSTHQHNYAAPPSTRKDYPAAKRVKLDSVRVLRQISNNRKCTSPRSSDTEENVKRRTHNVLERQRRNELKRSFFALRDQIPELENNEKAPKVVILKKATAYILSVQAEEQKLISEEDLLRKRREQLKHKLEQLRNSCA

binding to human c-Myc protein in yeast two hybrid interaction assay (human c-Myc protein)	Sequence	Reporter Ratio (germline ε promoter; [1])	Reporter Ratio (germline ε promoter; [2])	also measured
found to bind	MQRRAACITRSVEEGWGLFYLGP (peptide encoded by random oligo-BR10A1ES) [dual alanine mutant of BR10A1 wt]	1.50		
	MQRRESCITRSVEEGWGLAALGP (peptide encoded by random oligo-BR10A1FY) [dual alanine mutant of BR10A1 wt]	1.34		
	MQAAESCITRSVEEGWGLFYLGP (peptide encoded by random oligo-BR10A1RR) [dual alanine mutant of BR10A1 wt]			Reporter Ratio (germline ε promoter; first value column (separate experiment with its own WT control)): 1.32
found to bind	MQRRESAATRSVEEGWGLFYLGP (peptide encoded by random oligo-BR10A1CI) [dual alanine mutant of BR10A1 wt]		1.16	functional category as compared to the activity of the wild type peptide (germline ε promoter): ROF (a reduction of function (ROF) of mutant shows a >50% decrease in reporter ratio)
	MQRRESAATRSVEEAAGLFYLGP (peptide encoded by random oligo-BR10A1CIGW) [mutant of BR10A1 wt with alanines at CI and GW]			Reporter Ratio (germline ε promoter; fourth value column (separate experiment with its own WT control)): 1.08 and 1.15; functional category as compared to the activity of the wild type peptide (germline ε promoter): LOF/ROF
found to bind	MQRRESCITRSVEEGWAAFYLGP (peptide encoded by random oligo-BR10A1GL) [dual alanine mutant of BR10A1 wt]		1.44	
found to bind	MQRRESCIAASVEEGWGLFYLGP (peptide encoded by random oligo-BR10A1TR) [dual alanine mutant of BR10A1 wt]		1.62	functional category as compared to the activity of the wild type peptide (germline ε promoter): IOF (An increase of function mutant (IOF) shows a >50% increase in reporter ratio)
	MQRRESCITRSVEEGWGLFY (peptide encoded by random oligo-BR10A1STOP) [C-terminally truncated form of BR10A1 wt]	1.34		
	MQRRESCITRSVEEAAGLFYLGP (peptide encoded by random oligo-BR10A1GW) [dual alanine mutant of BR10A1 wt]		1.23	
	MQRRESCITRSVAAGWGLFYLGP (peptide encoded by random oligo-BR10A1EE) [dual alanine mutant of BR10A1 wt]		1.39	
	AARRESCITRSVEEGWGLFYLGP (peptide encoded by random oligo-BR10A1MQ) [dual alanine mutant of BR10A1 wt]	1.57		
